Source: the supplement of paper PMC7840683
Structures can show the parent of a compound that is named as a salt.

System: HepaRG
Assay: LDH release cytotoxicity, % of total lysis control; higher = more cytotoxic
Details: 48 h
Procedure, shortened: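 Eight-point half-log series of test chemicals, the highest at 100 µM, were given in duplicate for 48 h to single-lot HepaRG cells on collagen I-coated 96-well plates in serum-free induction medium with 0.5% DMSO. A Tecan Safire read resorufin fluorescence from CytoTox-ONE as a measure of LDH in 50 µL spent medium, with 0.1% Triton X in total lysis wells. Percent cytotoxicity was normalized to on-plate vehicle and total lysis controls and averaged over the duplicates.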

NS(=O)(=O)C(F)(F)C(F)(F)C(F)(F)C(F)(F)C(F)(F)C(F)(F)C(F)(F)C(F)(F)F [Perfluorooctanesulfonamide]
Details | LDH release cytotoxicity [%]
0.03162 µM | -1.99
0.1 µM | -2.06
0.3162278 µM | -2.69
1 µM | -1.57
3.16228 µM | -1.2
10 µM | -4.2
31.6228 µM | 41.1
100 µM | 86.8

O=S(=O)(O)C(F)(F)C(F)(F)C(F)(F)C(F)(F)C(F)(F)C(F)(F)C(F)(F)C(F)(F)F [Perfluorooctanesulfonic acid]
Details | LDH release cytotoxicity [%]
0.03162 µM | -1.36
0.1 µM | -1.86
0.3162278 µM | -1.14
1 µM | -1.91
3.16228 µM | -1.26
10 µM | -2
31.6228 µM | -0.893
100 µM | 19.6

O=C(O)C(F)(F)C(F)(F)C(F)(F)C(F)(F)C(F)(F)C(F)(F)C(F)(F)F [Perfluorooctanoic acid]
Details | LDH release cytotoxicity [%]
0.03162 µM | -0.867
0.1 µM | -1.32
0.3162278 µM | -1.53
1 µM | -1.76
3.16228 µM | -0.724
10 µM | -1.14
31.6228 µM | -1.29
100 µM | 1.94

O=C(O)C(F)(F)C(F)(F)C(F)(F)C(F)(F)C(F)(F)C(F)(F)C(F)(F)C(F)(F)C(F)(F)C(F)(F)F [Perfluoroundecanoic acid]
Details | LDH release cytotoxicity [%]
0.0302 µM | -0.896
0.0955 µM | -2.14
0.301998 µM | -0.462
0.955 µM | -1.31
3.01998 µM | -1.93
9.55 µM | -1.78
30.1998 µM | -0.387
95.5 µM | 1.42

CC1(C)C(C=C(Cl)Cl)C1C(=O)OCc1cccc(Oc2ccccc2)c1 (stereo not drawn) [Permethrin]
Details | LDH release cytotoxicity [%]
0.03162 µM | -0.121
0.1 µM | -0.859
0.3162278 µM | -0.0615
1 µM | -1.15
3.16228 µM | -1.16
10 µM | -1.02
31.6228 µM | -1.28
100 µM | -0.44

c1ccc2c(c1)ccc1ccccc12 [Phenanthrene]
Details | LDH release cytotoxicity [%]
0.03162 µM | -0.492
0.1 µM | -0.112
0.3162278 µM | -1.07
1 µM | -1.03
3.16228 µM | -1.55
10 µM | -0.467
31.6228 µM | -0.00782
100 µM | 0.23

CCC1(c2ccccc2)C(=O)N=C(O)NC1=O (stereo not drawn) [Phenobarbital sodium]
Details | LDH release cytotoxicity [%]
0.03162 µM | -1.03
0.1 µM | -0.9
0.3162278 µM | -1.41
1 µM | -0.43
3.16228 µM | -0.289
10 µM | -0.0423
31.6228 µM | 0.694
100 µM | 1.83

Oc1ccccc1 [Phenol]
Details | LDH release cytotoxicity [%]
0.03162 µM | -1.29
0.1 µM | -1.84
0.3162278 µM | -1.69
1 µM | -1.85
3.16228 µM | -1.67
10 µM | -1.64
31.6228 µM | -1.18
100 µM | 0.202

O=C1OC(c2ccc(O)cc2)(c2ccc(O)cc2)c2ccccc21 [Phenolphthalein]
Details | LDH release cytotoxicity [%]
0.03162 µM | -0.731
0.1 µM | -1.59
0.3162278 µM | -0.412
1 µM | -1.68
3.16228 µM | -0.391
10 µM | 0.41
31.6228 µM | 0.57
100 µM | 10.5

O=C(O)c1ccccc1C(c1ccc(O)cc1)c1ccc(O)cc1 [Phenolphthalin]
Details | LDH release cytotoxicity [%]
0.03162 µM | -1.69
0.1 µM | -1.91
0.3162278 µM | -2.15
1 µM | -2.6
3.16228 µM | -1.53
10 µM | -1.03
31.6228 µM | -1.15
100 µM | 0.0929

c1ccc2c(c1)Nc1ccccc1S2 [Phenothiazine]
Details | LDH release cytotoxicity [%]
0.03162 µM | -1.44
0.1 µM | -0.242
0.3162278 µM | -1.08
1 µM | -2.16
3.16228 µM | -1.87
10 µM | -1.1
31.6228 µM | 0.496
100 µM | 3.43

CC(=O)[O][Hg][c]1ccccc1 [Phenylmercuric acetate]
Details | LDH release cytotoxicity [%]
0.03162 µM | -1.79
0.1 µM | -0.0392
0.3162278 µM | 3.3
1 µM | 13.6
3.16228 µM | 23.5
10 µM | 45.48
31.6228 µM | -7.82
100 µM | -8.63

CCOP(=S)(OCC)SCSCC [Phorate]
Details | LDH release cytotoxicity [%]
0.03162 µM | -1.85
0.1 µM | -2.54
0.3162278 µM | -2.48
1 µM | -2.38
3.16228 µM | -2.32
10 µM | -1.2
31.6228 µM | -1.22
100 µM | -0.0088

CCOP(=S)(OCC)SCn1c(=O)oc2cc(Cl)ccc21 [Phosalone]
Details | LDH release cytotoxicity [%]
0.03162 µM | -2.44
0.1 µM | -3.01
0.3162278 µM | -2.19
1 µM | -2.28
3.16228 µM | -2.21
10 µM | -2.4
31.6228 µM | -1.63
100 µM | -1.09

COP(=S)(OC)SCN1C(=O)c2ccccc2C1=O [Phosmet]
Details | LDH release cytotoxicity [%]
0.03162 µM | -1.04
0.1 µM | -1.58
0.3162278 µM | -0.933
1 µM | -1.6
3.16228 µM | -1.56
10 µM | -1.14
31.6228 µM | -1.65
100 µM | 0.331

Nc1c(Cl)c(Cl)nc(C(=O)O)c1Cl [Picloram]
Details | LDH release cytotoxicity [%]
0.031623 µM | -0.672
0.1 µM | -3.68
0.316228 µM | -3.74
1 µM | -3.09
3.16228 µM | -2.76
10 µM | -2.73
31.6228 µM | -2.11
100 µM | 0.666

COC=C(C(=O)OC)c1ccccc1COc1cccc(C(F)(F)F)n1 [Picoxystrobin]
Details | LDH release cytotoxicity [%]
0.03162 µM | -4.13
0.1 µM | -3.11
0.3162278 µM | -4.04
1 µM | -4.28
3.16228 µM | -5.14
10 µM | 20
31.6228 µM | 37
100 µM | 60

CCc1ccc(CCOc2ccc(CC3SC(=O)NC3=O)cc2)nc1 (stereo not drawn) [Pioglitazone hydrochloride]
Details | LDH release cytotoxicity [%]
0.03162 µM | -0.765
0.1 µM | -1.11
0.3162278 µM | -1.39
1 µM | -1.98
3.16228 µM | -2.26
10 µM | -3.4
31.6228 µM | -3.94
100 µM | -0.63

C1CNCCN1 [Piperazine]
Details | LDH release cytotoxicity [%]
0.03162 µM | -6.9
0.1 µM | -7.27
0.3162278 µM | -6.65
1 µM | -7.16
3.16228 µM | -6.57
10 µM | -6.04
31.6228 µM | -6.14
100 µM | -6.01

CCCCOCCOCCOCc1cc2c(cc1CCC)OCO2 [Piperonyl butoxide]
Details | LDH release cytotoxicity [%]
0.031939 µM | -0.462
0.101 µM | -2.71
0.31939 µM | -2.69
1.01 µM | -3.07
3.1939 µM | -2.38
10.1 µM | -1.93
31.939 µM | -0.729
101 µM | 4.54

CS(=O)(=O)c1ccc(C(CC2CCC(=O)C2)C(=O)Nc2cnccn2)cc1Cl (stereo not drawn) [Piragliatin]
Details | LDH release cytotoxicity [%]
0.03162 µM | -0.668
0.1 µM | -1.54
0.3162278 µM | -0.661
1 µM | -1.64
3.16228 µM | -1.28
10 µM | -0.831
31.6228 µM | -1.24
100 µM | -0.692

Cc1nc(N(C)C)nc(OC(=O)N(C)C)c1C [Pirimicarb]
Details | LDH release cytotoxicity [%]
0.03162 µM | -1.14
0.1 µM | -1.49
0.3162278 µM | -1.89
1 µM | -1.97
3.16228 µM | -1.7
10 µM | -1.84
31.6228 µM | -1.4
100 µM | -0.895

CCN(CC)c1nc(C)cc(OP(=S)(OC)OC)n1 [Pirimiphos-methyl]
Details | LDH release cytotoxicity [%]
0.03162 µM | 0.287
0.1 µM | -1.19
0.3162278 µM | -1.08
1 µM | -0.906
3.16228 µM | -1.49
10 µM | -0.783
31.6228 µM | -1.01
100 µM | -1.29

Cc1cccc(Nc2cc(Cl)nc(SCC(=O)O)n2)c1C [Pirinixic acid]
Details | LDH release cytotoxicity [%]
0.03162 µM | -1.32
0.1 µM | -1.59
0.3162278 µM | -0.978
1 µM | -0.873
3.16228 µM | -1.38
10 µM | -1.43
31.6228 µM | 0.274
100 µM | 2.17

O=S(=O)(O)C(F)(F)C(F)(F)C(F)(F)C(F)(F)F [Potassium perfluorobutanesulfonate]
Details | LDH release cytotoxicity [%]
0.0332039 µM | -0.897
0.105 µM | -1.25
0.332039 µM | -2.33
1.05 µM | -2.02
3.32039 µM | -1.34
10.5 µM | -1.05
33.2039 µM | -1.53
105 µM | 0.458

O=S(=O)(O)C(F)(F)C(F)(F)C(F)(F)C(F)(F)C(F)(F)C(F)(F)F [Potassium perfluorohexanesulfonate]
Details | LDH release cytotoxicity [%]
0.03162 µM | -0.914
0.1 µM | -1.15
0.3162278 µM | -1.06
1 µM | -1.98
3.16228 µM | -1.95
10 µM | -0.831
31.6228 µM | -1.52
100 µM | -0.438
